Reference: ChEMBL document CHEMBL3632580, “Structure-activity relationship of indoloquinoline analogs anti-MRSA” (2015)
Values after ≈ are worked out from the molar mass of the structure shown.

How the values were obtained:
Type in all cases: functional
Staphylococcus aureus [1] = assay: Antibacterial activity against methicillin-resistant Staphylococcus aureus OM481
Staphylococcus aureus [2] = assay: Antibacterial activity against methicillin-resistant Staphylococcus aureus OM584
P388 = assay: Antitumor activity against mouse P388 cells implanted in CD2F1 mouse assessed as tumor growth inhibition at 6.25 mg/kg, ip relative to control

COc1cc(O)ccc1Nc1c2ccccc2nc2c1[nH]c1ccccc12
MIC (Staphylococcus aureus [1]): 8 µg/mL (≈ 22.5 µM)
MIC (Staphylococcus aureus [2]): 16 µg/mL (≈ 45 µM)

c1ccc(Nc2c3ccccc3nc3c2[nH]c2ccccc23)cc1
MIC (Staphylococcus aureus [1]): 8 µg/mL (≈ 25.9 µM)
MIC (Staphylococcus aureus [2]): 4 µg/mL (≈ 12.9 µM)

Cl.Oc1ccccc1Nc1c2ccccc2nc2c1[nH]c1ccccc12
MIC (Staphylococcus aureus [1]): 16 µg/mL
MIC (Staphylococcus aureus [2]): 16 µg/mL

Oc1cccc(Nc2c3ccccc3nc3c2[nH]c2ccccc23)c1
MIC (Staphylococcus aureus [1]): 16 µg/mL (≈ 49.2 µM)
MIC (Staphylococcus aureus [2]): 8 µg/mL (≈ 24.6 µM)

Oc1ccc(Nc2c3ccccc3nc3c2[nH]c2ccccc23)cc1
MIC (Staphylococcus aureus [1]): 4 µg/mL (≈ 12.3 µM)
MIC (Staphylococcus aureus [2]): 2 µg/mL (≈ 6.15 µM)

COc1ccccc1Nc1c2ccccc2nc2c1[nH]c1ccccc12
MIC (Staphylococcus aureus [1]): > 250 µg/mL
MIC (Staphylococcus aureus [2]): > 250 µg/mL

COc1cccc(Nc2c3ccccc3nc3c2[nH]c2ccccc23)c1
MIC (Staphylococcus aureus [1]): > 250 µg/mL
MIC (Staphylococcus aureus [2]): > 250 µg/mL

COc1ccc(Nc2c3ccccc3nc3c2[nH]c2ccccc23)cc1
MIC (Staphylococcus aureus [1]): 16 µg/mL (≈ 47.1 µM)
MIC (Staphylococcus aureus [2]): 8 µg/mL (≈ 23.6 µM)

Clc1ccccc1Nc1c2ccccc2nc2c1[nH]c1ccccc12
MIC (Staphylococcus aureus [1]): 8 µg/mL (≈ 23.3 µM)
MIC (Staphylococcus aureus [2]): 4 µg/mL (≈ 11.6 µM)

Clc1cccc(Nc2c3ccccc3nc3c2[nH]c2ccccc23)c1
MIC (Staphylococcus aureus [1]): 125 µg/mL (≈ 364 µM)
MIC (Staphylococcus aureus [2]): 125 µg/mL (≈ 364 µM)

Clc1ccc(Nc2c3ccccc3nc3c2[nH]c2ccccc23)cc1
MIC (Staphylococcus aureus [1]): 8 µg/mL (≈ 23.3 µM)
MIC (Staphylococcus aureus [2]): 4 µg/mL (≈ 11.6 µM)

Fc1ccc(Nc2c3ccccc3nc3c2[nH]c2ccccc23)cc1
MIC (Staphylococcus aureus [1]): 8 µg/mL (≈ 24.4 µM)
MIC (Staphylococcus aureus [2]): 8 µg/mL (≈ 24.4 µM)

Cc1ccc(Nc2c3ccccc3nc3c2[nH]c2ccccc23)cc1
MIC (Staphylococcus aureus [1]): 62.5 µg/mL (≈ 193 µM)
MIC (Staphylococcus aureus [2]): 62.5 µg/mL (≈ 193 µM)

O=[N+]([O-])c1ccc(Nc2c3ccccc3nc3c2[nH]c2ccccc23)cc1
MIC (Staphylococcus aureus [1]): > 250 µg/mL
MIC (Staphylococcus aureus [2]): > 250 µg/mL

CN(c1ccc(O)cc1)c1c2ccccc2nc2c1[nH]c1ccccc12
MIC (Staphylococcus aureus [1]): > 250 µg/mL
MIC (Staphylococcus aureus [2]): > 250 µg/mL

Oc1ccc(Nc2c3ccccc3nc3c2[nH]c2ccc(Cl)cc23)cc1
MIC (Staphylococcus aureus [1]): 8 µg/mL (≈ 22.2 µM)
MIC (Staphylococcus aureus [2]): 4 µg/mL (≈ 11.1 µM)

COc1ccc2[nH]c3c(Nc4ccc(O)cc4)c4ccccc4nc3c2c1
MIC (Staphylococcus aureus [1]): 2 µg/mL (≈ 5.63 µM)
MIC (Staphylococcus aureus [2]): 2 µg/mL (≈ 5.63 µM)

Cc1ccc2[nH]c3c(Nc4ccc(O)cc4)c4ccccc4nc3c2c1
MIC (Staphylococcus aureus [1]): 4 µg/mL (≈ 11.8 µM)
MIC (Staphylococcus aureus [2]): 2 µg/mL (≈ 5.89 µM)

Cn1c2ccccc2c2nc3ccccc3c(Nc3ccc(O)cc3)c21
MIC (Staphylococcus aureus [1]): 250 µg/mL (≈ 737 µM)
MIC (Staphylococcus aureus [2]): 8 µg/mL (≈ 23.6 µM)

CC(=O)Oc1ccc(Nc2c3ccccc3nc3c2[nH]c2ccccc23)cc1.Cl
MIC (Staphylococcus aureus [1]): 16 µg/mL
MIC (Staphylococcus aureus [2]): 8 µg/mL

Oc1ccc(Nc2c3ccccc3nc3c2oc2ccccc23)cc1
MIC (Staphylococcus aureus [1]): 2 µg/mL (≈ 6.13 µM)
MIC (Staphylococcus aureus [2]): 2 µg/mL (≈ 6.13 µM)

Oc1ccc(Nc2c3c(nc4ccccc24)-c2ccccc2C3)cc1
MIC (Staphylococcus aureus [1]): 250 µg/mL (≈ 771 µM)
MIC (Staphylococcus aureus [2]): > 250 µg/mL

CC1c2ccccc2-c2nc3ccccc3c(Nc3ccc(O)cc3)c21 (stereo unspecified)
MIC (Staphylococcus aureus [1]): 16 µg/mL (≈ 47.3 µM)
MIC (Staphylococcus aureus [2]): 4 µg/mL (≈ 11.8 µM)

Cl.Oc1ccc(Nc2c3ccccc3nc3ccccc23)cc1
MIC (Staphylococcus aureus [1]): 250 µg/mL
MIC (Staphylococcus aureus [2]): > 250 µg/mL

COc1cc(NS(C)(=O)=O)ccc1Nc1c2ccccc2nc2c1[nH]c1ccccc12
MIC (Staphylococcus aureus [1]): 8 µg/mL (≈ 18.5 µM)
T/C (P388): 300%
MIC (Staphylococcus aureus [2]): 16 µg/mL (≈ 37 µM)
